According to patent US20260092057A1, “BCL-XL/BCL-2 DEGRADERS AND USES THEREOF” (Kymera Therapeutics, Inc., priority 2022, published 2026):

What was measured:
Caki-2 cells = test: CTG (CellTiter-Glo) cell viability assay, Caki-2; format: cell-based; conditions: Homo sapiens, CAKI-2, 72 h, Caki-2, 3-day; read-out: CTG Chempartner/PHA- Caki-2 3-day: Average external-IC50
Experimental: (§1) Compound-mediated viability effect on MOLT-4 and Caki-2 was quantitatively determined using the CellTiter-Glo® Luminescent Cell Viability Assay kit from Promega (Catalog number G7570) following manufacturer's recommended procedures. Briefly, MOLT-4 and Caki-2 cells were seeded into 384 well plates (Grenier Bio-One, Catalog number 781080) with a density of 10,000 cells per well. Compounds were then added to the assay plate with final top concentration of 10 µM and 1:3 dilution series with total of 9 doses. The final DMSO concentration is normalized to 0.2%. The assay plates were incubated at 37° C. for 3 days under 5% CO2. Then the assay plate was equilibrated at room temperature for 10 minutes. To determine cell viability, 30 uL CellTiter Glo reagent was added to each well and the assay plate was centrifuged at 1000 rpm for 30 second, incubated at room temperature for 10 min, and analyzed by detecting the luminescence using a multimode plate reader (EnVision 2105, PerkinElmer). The data was then analyzed by software Prism 7.0 from GraphPad and the dose response curves are fit using a three-parameter logistic equation to calculate IC50.
(§2) The letter codes for MOLT-4 IC50 include: A (<0.1 μM); B (0.1-1.0 μM); C (>1.0-3.0 μM); and D (>3.0 μM). The letter codes for Caki-2 IC50 include: A (<5 μM); B (5-10 μM); C (>10-30.0 μM); and D (>30.0 μM).

MOLT-4 cells = test: CTG (CellTiter-Glo) cell viability assay, MOLT-4; format: cell-based; conditions: Homo sapiens, MOLT-4, 72 h, MOLT-4, 3 day; read-out: CTG Cell Viability Assay - MOLT-4 3 day: Average external-IC50
Experimental: as §1, §2

Structure (SMILES) | IC50 (MOLT-4 cells) | IC50 (Caki-2 cells)
Cc1ncsc1-c1ccc([C@H](C)NC(=O)[C@@H]2C[C@@H](O)CN2C(=O)[C@@H](NC(=O)CCCCCC(=O)N2CCN(c3ccc(-c4ccc(Cl)cc4)c([C@@H](O)C4CCN(c5ccc(C(=O)NS(=O)(=O)c6ccc(N[C@H](CCN(C)CCO)CSc7ccccc7)c(S(=O)(=O)C(F)(F)F)c6)cc5)CC4)c3)CC2)C(C)(C)C)cc1 (single isomer, unassigned) [I-114] | > 3000 nM | > 30000 nM
Cc1ncsc1-c1ccc([C@H](C)NC(=O)[C@@H]2C[C@@H](O)CN2C(=O)[C@@H](NC(=O)CCCCCC(=O)NCCCNc2ccc(S(=O)(=O)NC(=O)c3ccc(N4CCN(Cc5ccccc5-c5ccc(Cl)cc5)CC4)cc3Oc3cnc4[nH]ccc4c3)cc2S(=O)(=O)C(F)(F)F)C(C)(C)C)cc1 [I-62] | > 3000 nM | > 30000 nM
Cc1ncsc1-c1ccc([C@H](C)NC(=O)[C@@H]2C[C@@H](O)CN2C(=O)[C@@H](NC(=O)CCCCCC(=O)N2CCN(CC[C@H](CSc3ccccc3)Nc3ccc(S(=O)(=O)NC(=O)c4ccc(N5CCC6(CC5)CC(N5CCC[C@H]5c5ccccc5C5CC5)C6)cc4)cc3S(=O)(=O)C(F)(F)F)CC2)C(C)(C)C)cc1 [I-88] | 1000 to 3000 nM | > 30000 nM
Cc1ncsc1-c1ccc([C@H](C)NC(=O)[C@@H]2C[C@@H](O)CN2C(=O)[C@@H](NC(=O)CCCCCC(=O)N2CCN(CC[C@H](CSc3ccccc3)Nc3ccc(S(=O)(=O)NC(=O)c4ccc(N5CC6CN(C)CC6C5)cc4)cc3S(=O)(=O)C(F)(F)F)CC2)C(C)(C)C)cc1 (stereo partly shown) [I-47] | > 3000 nM | > 30000 nM
Cc1ncsc1-c1ccc([C@H](C)NC(=O)[C@@H]2C[C@@H](O)CN2C(=O)[C@@H](NC(=O)CCCCCC(=O)NCC[C@H](CSc2ccccc2)Nc2ccc(S(=O)(=O)NC(=O)c3ccc(N4CCC([C@H](O)c5ccccc5-c5ccc(Cl)cc5)CC4)cc3)cc2S(=O)(=O)C(F)(F)F)C(C)(C)C)cc1 [I-70] | > 3000 nM | > 30000 nM
Cc1ncsc1-c1ccc([C@H](C)NC(=O)[C@@H]2C[C@@H](O)CN2C(=O)[C@@H](NC(=O)CCCCCC(=O)N(C)CC[C@H](CSc2ccccc2)Nc2ccc(S(=O)(=O)NC(=O)c3ccc(N4CCC([C@@H](O)c5ccccc5-c5ccc(Cl)cc5)CC4)cc3)cc2S(=O)(=O)C(F)(F)F)C(C)(C)C)cc1 [I-72] | 1000 to 3000 nM | 10000 to 30000 nM
Cc1ncsc1-c1ccc([C@H](C)NC(=O)[C@@H]2C[C@@H](O)CN2C(=O)[C@@H](NC(=O)CCCCCC(=O)N2CCN(Cc3ccc(-c4ccc(Cl)cc4)c([C@H](O)C4CCN(c5ccc(C(=O)NS(=O)(=O)c6ccc(NCCCN(C)C)c(S(=O)(=O)C(F)(F)F)c6)c(Oc6cnc7[nH]ccc7c6)c5)CC4)c3)CC2)C(C)(C)C)cc1 [I-111] | > 3000 nM | > 30000 nM

More lines, main results first:

IC50 (MOLT-4 cells) | Structure (SMILES) | IC50 (Caki-2 cells)
100 to 1000 nM | Cc1ncsc1-c1ccc([C@H](C)NC(=O)[C@@H]2C[C@@H](O)CN2C(=O)[C@@H](NC(=O)CCCCCC(=O)N[C@H]2CCN(CCCNc3ccc(S(=O)(=O)NC(=O)c4ccc(N5CCN(CC6=C(c7ccc(Cl)cc7)CC(C)(C)CC6)CC5)cc4Oc4cnc5[nH]ccc5c4)cc3S(=O)(=O)C(F)(F)F)C2)C(C)(C)C)cc1 [I-96] | > 30000 nM
> 3000 nM | Cc1ncsc1-c1ccc([C@H](C)NC(=O)[C@@H]2C[C@@H](O)CN2C(=O)[C@@H](NC(=O)CNCCCNc2ccc(S(=O)(=O)NC(=O)c3ccc(N4CCN(CC5=C(c6ccc(Cl)cc6)CC(C)(C)CC5)CC4)cc3Oc3cnc4[nH]ccc4c3)cc2S(=O)(=O)C(F)(F)F)C(C)(C)C)cc1 [I-115] | > 30000 nM
> 3000 nM | Cc1ncsc1-c1ccc([C@H](C)NC(=O)[C@@H]2C[C@@H](O)CN2C(=O)[C@@H](NC(=O)CCCc2ccc(NCCNc3ccc(S(=O)(=O)NC(=O)c4ccc(N5CCN(CC6=C(c7ccc(Cl)cc7)CC(C)(C)CC6)CC5)cc4Oc4cnc5[nH]ccc5c4)cc3S(=O)(=O)C(F)(F)F)cc2)C(C)(C)C)cc1 [I-101] | > 30000 nM
< 100 nM | Cc1ncsc1-c1ccc([C@H](C)NC(=O)[C@@H]2C[C@@H](O)CN2C(=O)[C@@H](NC(=O)CCCCCCN2CCN(CCCNc3ccc(S(=O)(=O)NC(=O)c4ccc(N5CCN(CC6=C(c7ccc(Cl)cc7)CC(C)(C)CC6)CC5)cc4Oc4cnc5[nH]ccc5c4)cc3S(=O)(=O)C(F)(F)F)CC2)C(C)(C)C)cc1 [I-137] | > 30000 nM
